Experimental data as given in ChEMBL document CHEMBL6177980 (J Med Chem, 2025).
Active and inactive are the calls of the source. No cut-off for these calls is given here.

What was measured:
[1] = tested on: A549; assay: Cytotoxicity against human A549 cells up to 100 uM; assay type: toxicity, cell-based; details: a549, 100 µM
[2] = Prodrug conversion in Beagle dog liver microsomes assessed as parent nucleoside metabolite formation at 1 uM measured up to 60 mins in presence of BNPP/NADPH/UDPGA by LC-MS/MS analysis; assay type: ADME, Canis lupus familiaris, Microsome; details: 1 h
[3] = Prodrug conversion in Sprague-Dawley rat assessed as 4'-Fluorouridine-NTP metabolite formation in thymus at 6 mg/kg, po measured for 0.5 to 24 hrs by LC-MS/MS analysis; assay type: ADME, organism-based; details: in vivo, time 0.5-24 hrs
[4] = tested on: Mammarenavirus choriomeningitidis; assay: Antiviral activity against LCMV infected in C57BL/6-Prf1tm1Sdz/J mouse assessed as reduction in viral copy number in kidney treated orally once daily for 7 days by RT-qPCR analysis; assay type: functional, organism-based; details: dose 1-5 mg/kg, route po, time 7.0 day
[5] = tested on: Mammarenavirus choriomeningitidis; assay: Antiviral activity against LCMV infected in C57BL/6-Prf1tm1Sdz/J mouse assessed as reduction in viral copy number in lung treated orally once daily for 7 days by RT-qPCR analysis; assay type: functional, organism-based; details: dose 1-5 mg/kg, route po, time 7.0 day
[6] = Prodrug conversion in Sprague-Dawley rat assessed as 4'-Fluorouridine metabolite formation in small intestine at 6 mg/kg, po measured for 0.5 to 24 hrs by LC-MS/MS analysis; assay type: ADME, organism-based; details: in vivo, time 0.5-24 hrs
[7] = tested on: Mammarenavirus choriomeningitidis; assay: In vivo antiviral activity against LCMV infected in C57BL/6-Prf1tm1Sdz/J mouse assessed as animal survival rate at 1 to 5 mg/kg, po qd treated for 7 days relative to control; assay type: functional; details: dose 1-5 mg/kg, time 7 day
[8] = Prodrug conversion in C57BL/6J mouse plasma assessed as parent nucleoside metabolite formation at 1 uM measured up to 60 mins by LC-MS/MS analysis; assay type: ADME, cell-free; details: 1 h
[9] = Prodrug conversion in C57BL/6J mouse liver microsomes assessed as parent nucleoside metabolite formation at 1 uM measured up to 60 mins in presence of NADPH/UDPGA by LC-MS/MS analysis; assay type: ADME, Microsome; details: 1 h
[10] = Prodrug conversion in Beagle dog assessed as AUC (0 to t) of 4'-Fluorouridine metabolite at 3 mg/kg, po by LC-MS/MS analysis; assay type: ADME, organism-based, Canis lupus familiaris; details: in vivo
[11] = Stability of compound at pH 4.0 assessed as change in purity at 1 mg/ml incubated for 12 hrs by HPLC analysis; assay type: physicochemical; details: buffer, pH 4, 12 h
[12] = Prodrug conversion in Sprague-Dawley rat assessed as Cmax of 4'-Fluorouridine metabolite at 6 mg/kg/day, po treated for 7 days by LC-MS/MS analysis; assay type: ADME, organism-based; details: in vivo, 168 h, time 7 day
[13] = Prodrug conversion in Beagle dog assessed as AUC (0 to t) of 4'-Fluorouridine metabolite at 10 mg/kg, po by LC-MS/MS analysis; assay type: ADME, organism-based, Canis lupus familiaris; details: in vivo
[14] = Prodrug conversion in Beagle dog assessed as Cmax of 4'-Fluorouridine metabolite at 10 mg/kg, po by LC-MS/MS analysis; assay type: ADME, organism-based, Canis lupus familiaris; details: in vivo
[15] = Cmax in fasted Cynomolgus monkey at 11.6 mg/kg, po by LC-MS/MS analysis; assay type: ADME, organism-based, Macaca fascicularis; details: in vivo
[16] = Toxicity in Sprague-Dawley rat assessed as maximum tolerated dose; details: in vivo
[17] = Prodrug conversion in C57BL/6J mouse assessed as AUC (0 to t) of 4'-Fluorouridine metabolite at 6 mg/kg, po by LC-MS/MS analysis; assay type: ADME, organism-based; details: in vivo
[18] = Stability of compound at pH 4.0 assessed as change in purity at 1 mg/ml incubated for 4 hrs by HPLC analysis; assay type: physicochemical; details: buffer, pH 4, 4 h
[19] = Prodrug conversion in Sprague-Dawley rat assessed as 4'-Fluorouridine metabolite formation in spleen at 6 mg/kg, po measured for 0.5 to 24 hrs by LC-MS/MS analysis; assay type: ADME, organism-based; details: in vivo, time 0.5-24 hrs
[20] = Prodrug conversion in Sprague-Dawley rat assessed as Cmax of 4'-Fluorouridine metabolite at 2 mg/kg, po by LC-MS/MS analysis; assay type: ADME, organism-based; details: in vivo
[21] = tested on: Mammarenavirus choriomeningitidis; assay: In vivo antiviral activity against LCMV infected in C57BL/6-Prf1tm1Sdz/J mouse assessed as void of inflammatory cell inflammation in spleen at 1 to 5 mg/kg, po qd for 7 days; assay type: functional, organism-based; details: dose 1-5 mg/kg, time 7.0 day
[22] = Prodrug conversion in Beagle dog assessed as AUC (0 to t) of 4'-Fluorouridine metabolite at 3 mg/kg/day, po treated for 7 days by LC-MS/MS analysis; assay type: ADME, organism-based, Canis lupus familiaris; details: in vivo, 168 h, time 7 day
[23] = Stability of compound at pH 6.8 assessed as change in purity at 1 mg/ml incubated for 4 hrs by HPLC analysis; assay type: physicochemical; details: buffer, pH 6.8, 4 h
[24] = Prodrug conversion in Sprague-Dawley rat assessed as 4'-Fluorouridine metabolite formation in heart at 6 mg/kg, po measured for 0.5 to 24 hrs by LC-MS/MS analysis; assay type: ADME, organism-based; details: in vivo, time 0.5-24 hrs
[25] = tested on: Mammarenavirus choriomeningitidis; assay: In vivo antiviral activity against LCMV infected in C57BL/6-Prf1tm1Sdz/J mouse assessed as appearance of regular splenic nodule structure at 1 to 5 mg/kg, po qd for 7 days; assay type: functional, organism-based; details: dose 1-5 mg/kg, time 7.0 day
[26] = Prodrug conversion in Sprague-Dawley rat liver microsomes assessed as parent nucleoside metabolite formation at 1 uM measured up to 60 mins in presence of BNPP/NADPH/UDPGA by LC-MS/MS analysis; assay type: ADME, Microsome; details: 1 h
[27] = tested on: Mammarenavirus choriomeningitidis; assay: In vivo antiviral activity against LCMV infected in C57BL/6-Prf1tm1Sdz/J mouse assessed as improvement in lymphocytes percentage at 1 to 5 mg/kg, po qd treated for 7 days; assay type: functional, organism-based; details: dose 1-5 mg/kg, time 7.0 day
[28] = Prodrug conversion in Sprague-Dawley rat assessed as Cmax of 4'-Fluorouridine metabolite at 6 mg/kg, po by LC-MS/MS analysis; assay type: ADME, organism-based; details: in vivo
[29] = Prodrug conversion in C57BL/6J mouse plasma assessed as parent nucleoside metabolite formation administered orally or intravenously; assay type: ADME, cell-free; details: po
[30] = Toxicity in Sprague-Dawley rat assessed as drug tolerance administered as single dose; details: in vivo
[31] = Stability of compound at pH 6.8 assessed as change in purity at 1 mg/ml incubated for 12 hrs by HPLC analysis; assay type: physicochemical; details: buffer, pH 6.8, 12 h
[32] = Prodrug conversion in Sprague-Dawley rat assessed as AUC (0 to t) of 4'-Fluorouridine metabolite at 2 mg/kg, po by LC-MS/MS analysis; assay type: ADME, organism-based; details: in vivo
[33] = tested on: Mammarenavirus choriomeningitidis; assay: Antiviral activity against LCMV infected in C57BL/6-Prf1tm1Sdz/J mouse assessed as reduction in viral titer in liver treated orally once daily for 7 days by RT-qPCR analysis; assay type: functional, organism-based; details: dose 1-5 mg/kg, route po, time 7.0 day
[34] = Prodrug conversion in C57BL/6J mouse assessed as AUC (0 to t) of 4'-Fluorouridine metabolite at 20 mg/kg, po by LC-MS/MS analysis; assay type: ADME, organism-based; details: in vivo
[35] = Prodrug conversion in Sprague-Dawley rat assessed as volume of distribution at steady state of 4'-Fluorouridine metabolite treated orally or intravenously by LC-MS/MS analysis; assay type: ADME; details: in vivo, po
[36] = tested on: Mammarenavirus choriomeningitidis; assay: In vivo antiviral activity against LCMV infected in C57BL/6-Prf1tm1Sdz/J mouse assessed as void of necrosis in spleen at 1 to 5 mg/kg, po qd for 7 days; assay type: functional, organism-based; details: dose 1-5 mg/kg, time 7.0 day

CC(C)C(=O)OC[C@@]1(F)O[C@@H](n2ccc(=O)n(COC(=O)c3cccnc3)c2=O)[C@H](OC(=O)C(C)C)[C@@H]1OC(=O)C(C)C
Activity [1]: Non-toxic
Drug metabolism [2]: metabolite_notdetected
Drug metabolism [3]: metabolite_detected
Activity [4]: Dose-dependent-effect
Activity [5]: Dose-dependent-effect
Drug metabolism [6]: metabolite_detected
Survival [7]: 100%
Drug metabolism [8]: metabolite_detected
Drug metabolism [9]: metabolite_detected
AUCt [10]: 903 ng·h/mL
Activity [11]: 0%
Cmax [12]: 383 ng/mL
AUCt [13]: 3601 ng·h/mL
Cmax [14]: 1501 ng/mL
Cmax [15]: 2390 ng/mL
MTD [16]: > 500 mg/kg
AUCt [17]: 1729 ng·h/mL
Activity [18]: 0%
Drug metabolism [19]: metabolite_detected
Cmax [20]: 119 ng/mL
Activity [21]: Active
AUCt [22]: 1249 ng·h/mL
Activity [23]: -0.1%
Drug metabolism [24]: metabolite_detected
Activity [25]: Active
Drug metabolism [26]: metabolite_notdetected
Activity [27]: Active
Cmax [28]: 329 ng/mL
Drug metabolism [29]: metabolite_detected
Activity [30]: Non-toxic
Activity [31]: -0.3%
AUCt [32]: 962 ng·h/mL
Activity [33]: Dose-dependent-effect
AUCt [34]: 7586 ng·h/mL
Vdss [35]: 24.3 L/kg
Activity [36]: Active
